Legend:
[1] = tested on: Hodgkin lymphoma cell lines; parameters: method as in PMID 11953894; settings: cited from earlier work
[2] = tested on: multiple myeloma cell line; settings: cited from earlier work
[3] = tested on: anaplastic large cell lymphoma with NPM-ALK fusion protein cell lines; parameters: method as in PMID 11532349; settings: cited from earlier work
[4] = tested on: refractory/relapsed myeloma; settings: patients with refractory/relapsed myeloma; cited from earlier work
[5] = in vivo; settings: CD1, mouse, plasma, ip

| AUC(0-t) ([5]; 12 mg/kg/d) [ng·h/mL] | AUC(0-t) ([5]; 12 mg/kg/day) [ng·h/mL] | half-life ([5]; 12 mg/kg/day) [min] | SMILES | effect in Hodgkin lymphoma cell lines [1] | in vitro antiproliferative effect on a multiple myeloma cell line [2] | effect in anaplastic large cell lymphoma cell lines [3] | response in phase II trial [4] |
| --- | --- | --- | --- | --- | --- | --- | --- |
| – | – | – | Cc1ccc(NC(=O)c2ccc(CN3CCN(C)CC3)cc2)cc1Nc1nccc(-c2cccnc2)n1 [imatinib] | minimal effect | antiproliferative effect | minimal effect | no response |
| 17900 | 20000 | 14.4 | COc1cc([C@@H]2c3cc4c(cc3[C@@H](O[C@@H]3O[C@@H]5CO[C@@H](C)O[C@H]5[C@H](O)[C@H]3O)[C@H]3COC(=O)[C@H]23)OCO4)cc(OC)c1O [etoposide] | – | – | – | – |

Source: article PMC2180168 (BMC Pharmacology, 2007)
